We go through 52 compounds from the supplement of paper PMC12137928.

This assay deals with HCT116. The conditions noted are these: 72 h. The method in brief: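 After seeding at 250 cells per well in 1536-well plates, HCT116 cells were given 5 h to attach. CellTiter-Glo luminescence, scaled to 0% for vehicle and -100% for positive control, was pattern-corrected. Fitting with a four-parameter Hill model produced IC50 and maximal efficacy.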

The structures appear in SMILES notation. Structures can show the parent of a compound that is named as a salt.

As for `C[C@]12C=CC(=O)C=C1[C@@H](F)C[C@@H]1[C@@H]2[C@@H](O)C[C@@]2(C)[C@H]1CC[C@]2(O)C(=O)CO` [Fluprednisolone], the IC50 cell viability is above 45.8 µM (ICRF193 0 nM) and above 45.8 µM (ICRF193 200 nM).

Take `COc1cc(/C=C/C(=O)O[C@H]2CC[C@]34C[C@]35CC[C@]3(C)[C@@H]([C@H](C)CCC=C(C)C)CC[C@@]3(C)[C@@H]5CC[C@H]4C2(C)C)ccc1O` [gamma-Oryzanol]: the IC50 cell viability is above 45.8 µM (ICRF193 0 nM) and above 45.8 µM (ICRF193 200 nM).

In the case of `CN(C)[C@@H]1C(O)=C(C(N)=O)C(=O)[C@@]2(O)C(O)=C3C(=O)c4c(O)ccc(Cl)c4[C@@](C)(O)[C@H]3C[C@@H]12` [Chlortetracycline HCl], the IC50 cell viability is, setting by setting: (ICRF193 0 nM) above 45.8 µM; (ICRF193 200 nM) above 45.8 µM.

Regarding `C=CCC1(C(C)CC)C(=O)NC(=O)NC1=O` (centres undefined) [Talbutal], the IC50 cell viability reads like this: (ICRF193 0 nM) above 45.8 µM; (ICRF193 200 nM) above 45.8 µM.

Regarding `O=C(OCCN1CCCCC1)C(O)(c1ccccc1)c1ccccc1` [Piperilate hydrochloride], the IC50 cell viability by setting is: (ICRF193 0 nM) above 45.8 µM; (ICRF193 200 nM) above 45.8 µM.

As to `CC(C(=O)O)c1ccc(C(=O)c2cccs2)cc1` (centres undefined) [Suprofen], the IC50 cell viability by setting is: (ICRF193 0 nM) above 45.8 µM; (ICRF193 200 nM) above 45.8 µM.

With `COc1cnc(NS(=O)(=O)c2ccc(N)cc2)nc1` [Sulfameter], the IC50 cell viability reads like this: (ICRF193 0 nM) above 45.8 µM; (ICRF193 200 nM) above 45.8 µM.

For the compound `CS(=O)(=O)n1cc2c(n1)CN([C@H]1CO[C@H](c3cc(F)ccc3F)[C@@H](N)C1)C2` [MK-3102], the IC50 cell viability runs as follows: (ICRF193 0 nM) above 45.8 µM; (ICRF193 200 nM) above 45.8 µM.

For `N#Cc1cc(-c2n[nH]c(-c3ccncc3)n2)ccn1` [Topiroxostat], the IC50 cell viability is above 45.8 µM (ICRF193 0 nM) and above 45.8 µM (ICRF193 200 nM).

`CC(=O)CC(c1ccccc1)c1c(O)c2ccccc2oc1=O` (centres undefined) [Warfarin sodium]: the IC50 cell viability (ICRF193 0 nM) is above 45.8 µM and the IC50 cell viability (ICRF193 200 nM) is above 45.8 µM.

For `CC(C)OC(=O)[C@H](C)N[P@@](=O)(OC[C@H]1O[C@@H](n2ccc(=O)[nH]c2=O)[C@](C)(F)[C@@H]1O)Oc1ccccc1` [PSI-7976], the IC50 cell viability (ICRF193 0 nM) was above 45.8 µM and the IC50 cell viability (ICRF193 200 nM) is above 45.8 µM.

As for `O=C(O)/C=C\C(=O)O` [Maleic acid], the IC50 cell viability was above 45.8 µM (ICRF193 0 nM) and above 45.8 µM (ICRF193 200 nM).

Consider `Cn1cnc2c1c(=O)[nH]c(=O)n2C` [Theobromine], for which the IC50 cell viability reads like this: (ICRF193 0 nM) above 45.8 µM; (ICRF193 200 nM) above 45.8 µM.

Regarding `O=c1[nH]c2ccccc2n1CCN1CCN(c2cccc(C(F)(F)F)c2)CC1` [FLIBANSERIN], the IC50 cell viability runs as follows: (ICRF193 0 nM) above 45.8 µM; (ICRF193 200 nM) above 45.8 µM.

Turning to `Nc1ccc(S(=O)(=O)Nc2ccnn2-c2ccccc2)cc1` [Sulfaphenazole], the IC50 cell viability is above 45.8 µM (ICRF193 0 nM) and above 45.8 µM (ICRF193 200 nM).

Take `CC1=Nc2ccc(Cl)cc2S(=O)(=O)N1` [Diazoxide]: the IC50 cell viability is, setting by setting: (ICRF193 0 nM) above 45.8 µM; (ICRF193 200 nM) above 45.8 µM.

Regarding `COc1cc(O)c(C(=O)c2ccccc2)cc1S(=O)(=O)O` [Sulisobenzone], the IC50 cell viability by setting is: (ICRF193 0 nM) above 45.8 µM; (ICRF193 200 nM) above 45.8 µM.

As to `CC(C)=C/C(C)=N/Nc1nncc2ccccc12` [Budralazine], the IC50 cell viability (ICRF193 0 nM) is above 45.8 µM and the IC50 cell viability (ICRF193 200 nM) is above 45.8 µM.

In the case of `O=P(O)(O)C(O)(Cn1ccnc1)P(=O)(O)O` [Zoledronic acid monohydrate], the IC50 cell viability was above 45.8 µM (ICRF193 0 nM) and above 45.8 µM (ICRF193 200 nM).

For `O=C(Nc1cccc2c(=O)cc(-c3nnn[nH]3)oc12)c1ccc(OCCCCc2ccccc2)cc1` [Pranlukast hydrate], the IC50 cell viability was above 45.8 µM (ICRF193 0 nM) and above 45.8 µM (ICRF193 200 nM).

`CC1CNc2c(cccc2S(=O)(=O)N[C@@H](CCCNC(=N)N)C(=O)N2CC[C@@H](C)C[C@@H]2C(=O)O)C1` (some centres undefined) [Argatroban] came in with an IC50 cell viability (ICRF193 0 nM) above 45.8 µM and an IC50 cell viability (ICRF193 200 nM) above 45.8 µM.

Take `CCCCC[C@H](O)C=C[C@@H]1[C@@H](C/C=C/CCCC(=O)O)[C@H](O)C[C@H]1O` [5-trans Prostaglandin F2?]: the IC50 cell viability (ICRF193 0 nM) is above 45.8 µM and the IC50 cell viability (ICRF193 200 nM) is above 45.8 µM.

On to `Cc1ccc(NC(=O)c2ccc(CN3CCN(C)CC3)cc2)cc1Nc1nccc(-c2cccnc2)n1` [Imatinib], for which the IC50 cell viability was above 45.8 µM (ICRF193 0 nM) and above 45.8 µM (ICRF193 200 nM).

The compound `CN(C)[C@@H]1C(O)=C(C(=O)NCNCCCC[C@H](N)C(=O)O)C(=O)[C@@]2(O)C(O)=C3C(=O)c4c(O)cccc4[C@@](C)(O)[C@H]3C[C@@H]12` [Lymecycline] came in with an IC50 cell viability (ICRF193 0 nM) above 45.8 µM and an IC50 cell viability (ICRF193 200 nM) above 45.8 µM.

For the compound `Cc1cccc(C)c1NC(=O)CC12CCCN1CCC2` [Pilsicainide], the IC50 cell viability is above 45.8 µM (ICRF193 0 nM) and above 45.8 µM (ICRF193 200 nM).

Consider `CCCCNc1ccc(C(=O)OCCOCCOCCOCCOCCOCCOCCOCCOCCOC)cc1` [Benzonatate], for which the IC50 cell viability is, setting by setting: (ICRF193 0 nM) above 45.8 µM; (ICRF193 200 nM) above 45.8 µM.

In turn, `CCC(Cc1c(I)cc(I)c(N)c1I)C(=O)O` (centres undefined) [Iopanoic acid] returned an IC50 cell viability (ICRF193 0 nM) above 45.8 µM and an IC50 cell viability (ICRF193 200 nM) above 45.8 µM.

In the case of `CCCCCCCCCCCCCCCC(=O)OCCC1CCN(CCCN2c3ccccc3Sc3ccc(S(=O)(=O)N(C)C)cc32)CC1` [Pipothiazine palmitate], the IC50 cell viability (ICRF193 0 nM) was above 45.8 µM and the IC50 cell viability (ICRF193 200 nM) is above 45.8 µM.

As to `C[C@@H]1C[C@H]2[C@@H]3CCC4=CC(=O)C=C[C@]4(C)[C@@]3(F)[C@@H](O)C[C@]2(C)[C@@]1(O)C(=O)COC(=O)c1ccncc1` [Dexamethasone isonicotinate], the IC50 cell viability is above 45.8 µM (ICRF193 0 nM) and above 45.8 µM (ICRF193 200 nM).

Turning to `CN(C)CCN1C(=O)c2ccccc2N(C)c2ccccc21` [Dibenzepin hydrochloride], the IC50 cell viability is above 45.8 µM (ICRF193 0 nM) and above 45.8 µM (ICRF193 200 nM).

For `CCOCCn1c(C2CCN(CCc3ccc(C(C)(C)C(=O)O)cc3)CC2)nc2ccccc21` [Bilastine], the IC50 cell viability (ICRF193 0 nM) is above 45.8 µM and the IC50 cell viability (ICRF193 200 nM) was above 45.8 µM.

For `CCCCC(CC)CNC(=O)CC(C)OC(=O)CCC(=O)O` (centres undefined) [Butoctamide semisuccinate], the IC50 cell viability is, setting by setting: (ICRF193 0 nM) above 45.8 µM; (ICRF193 200 nM) above 45.8 µM.

Consider `COCC(=O)Nc1cc(Sc2ccccc2)ccc1N=C(NC(=O)OC)NC(=O)OC` [Febantel], for which the IC50 cell viability is above 45.8 µM (ICRF193 0 nM) and above 45.8 µM (ICRF193 200 nM).

`C[N+](C)(C)CC(=O)O` [Betaine]: the IC50 cell viability is, setting by setting: (ICRF193 0 nM) above 45.8 µM; (ICRF193 200 nM) above 45.8 µM.

As to `COc1ccc2cccc(CCNC(C)=O)c2c1` [Agomelatine], the IC50 cell viability by setting is: (ICRF193 0 nM) above 45.8 µM; (ICRF193 200 nM) above 45.8 µM.

As to `CCc1ccc(CCOc2ccc(CC3SC(=O)NC3=O)cc2)nc1` (centres undefined) [Pioglitazone hydrochloride], the IC50 cell viability is, setting by setting: (ICRF193 0 nM) above 45.8 µM; (ICRF193 200 nM) above 45.8 µM.

As for `Cc1ccccc1O` [o-Cresol], the IC50 cell viability is above 45.8 µM (ICRF193 0 nM) and above 45.8 µM (ICRF193 200 nM).

For `CC#CCn1c(N2CCC[C@@H](N)C2)nc2c1c(=O)n(Cc1nc(C)c3ccccc3n1)c(=O)n2C` [Linagliptin], the IC50 cell viability was above 45.8 µM (ICRF193 0 nM) and above 45.8 µM (ICRF193 200 nM).

For `Cc1cc(=O)oc2cc(O)ccc12` [4-Methylumbelliferone], the IC50 cell viability reads like this: (ICRF193 0 nM) above 45.8 µM; (ICRF193 200 nM) above 45.8 µM.

In turn, `CCC(C)(C)OC(=O)N[C@@H](Cc1c[nH]c2ccccc12)C(=O)N[C@@H](CCSC)C(=O)N[C@@H](CC(=O)O)C(=O)N[C@@H](Cc1ccccc1)C(N)=O` [Amogastrin] had an IC50 cell viability (ICRF193 0 nM) above 45.8 µM and an IC50 cell viability (ICRF193 200 nM) above 45.8 µM.

Consider `Nc1nc(F)nc2c1ncn2[C@@H]1O[C@H](COP(=O)(O)O)[C@@H](O)[C@@H]1O` [Fludarabine phosphate], for which the IC50 cell viability was above 45.8 µM (ICRF193 0 nM) and above 45.8 µM (ICRF193 200 nM).

Take `CC[C@@]1(c2ccccc2)NC(=O)N(C)C1=O` [(S)-Mephenytoin]: the IC50 cell viability (ICRF193 0 nM) was above 45.8 µM and the IC50 cell viability (ICRF193 200 nM) was above 45.8 µM.

In the case of `CC(=O)OCC(=O)[C@@]1(O)[C@H](OC(C)=O)C[C@H]2[C@@H]3CCC4=CC(=O)C=C[C@]4(C)[C@@]3(F)[C@@H](O)C[C@@]21C` [Triamcinolone diacetate], the IC50 cell viability is above 45.8 µM (ICRF193 0 nM) and above 45.8 µM (ICRF193 200 nM).

As for `C(=C\c1ccncc1)/c1ccccc1` [4-Styrylpyridine], the IC50 cell viability reads like this: (ICRF193 0 nM) above 45.8 µM; (ICRF193 200 nM) above 45.8 µM.

`CCCN(CCC)CCc1cccc2c1CC(=O)N2` [Ropinirole] had an IC50 cell viability (ICRF193 0 nM) above 45.8 µM and an IC50 cell viability (ICRF193 200 nM) above 45.8 µM.

For `CC1=CC(=O)c2ccccc2C1=O` [Menadione], the IC50 cell viability was above 45.8 µM (ICRF193 0 nM) and above 45.8 µM (ICRF193 200 nM).

The compound `O=C(CCCCC(=O)Nc1c(I)cc(I)c(C(=O)O)c1I)Nc1c(I)cc(I)c(C(=O)O)c1I` [Iodipamide] showed an IC50 cell viability (ICRF193 0 nM) above 45.8 µM and an IC50 cell viability (ICRF193 200 nM) above 45.8 µM.

`CN(C(=O)C(Cl)Cl)c1ccc(OC(=O)c2ccco2)cc1` [Diloxanide furoate]: the IC50 cell viability (ICRF193 0 nM) was above 45.8 µM and the IC50 cell viability (ICRF193 200 nM) was above 45.8 µM.

As for `Nc1nc(O)c2ncn(CCC(CO)CO)c2n1` [Penciclovir], the IC50 cell viability runs as follows: (ICRF193 0 nM) above 45.8 µM; (ICRF193 200 nM) above 45.8 µM.

With `CC(C)C[C@H](NC(=O)[C@@H](O)[C@H](N)Cc1ccccc1)C(=O)O` [Ubenimex], the IC50 cell viability reads like this: (ICRF193 0 nM) above 45.8 µM; (ICRF193 200 nM) above 45.8 µM.

For `CCCCC(CC)CN1CN(CC(CC)CCCC)CC(C)(N)C1` (centres undefined) [Hexetidine], the IC50 cell viability is above 45.8 µM (ICRF193 0 nM) and above 45.8 µM (ICRF193 200 nM).

Regarding `CC(C)C[C@H](NC(=O)[C@@H](Cc1c[nH]c2ccccc12)NC(=O)[C@H](Cc1ccc(O)cc1)NC(=O)[C@H](CO)NC(=O)[C@H](Cc1c[nH]c2ccccc12)NC(=O)[C@H](Cc1c[nH]cn1)NC(=O)[C@@H]1CCC(=O)N1)C(=O)N[C@@H](CCCNC(=N)N)C(=O)N1CCC[C@H]1C(=O)NCC(N)=O` [Triptorelin], the IC50 cell viability (ICRF193 0 nM) is above 45.8 µM and the IC50 cell viability (ICRF193 200 nM) is above 45.8 µM.
